Assay results reported in ChEMBL document CHEMBL5365417, “The development of diphenyleneiodonium analogs as GPR3 agonists” (Bioorg Med Chem Lett, 2023).

How the values were obtained:
[1] = biological target: T1, G-protein coupled receptor 3 (Homo sapiens, UniProt P46089); assay: Agonist activity at human GPR3 expressed in HEK293 cells assessed as increase in cAMP accumulation incubated for 30 mins by HTRF assay; assay type: functional, cell-based
[2] = biological target: T1, G-protein coupled receptor 3; assay: Agonist activity at human GPR3 expressed in HEK293 cells assessed as increase in cAMP accumulation at 1 uM incubated for 30 mins by AlphaScreen assay relative to control; assay type: functional, cell-based

T1 sequence (P46089 whole entry): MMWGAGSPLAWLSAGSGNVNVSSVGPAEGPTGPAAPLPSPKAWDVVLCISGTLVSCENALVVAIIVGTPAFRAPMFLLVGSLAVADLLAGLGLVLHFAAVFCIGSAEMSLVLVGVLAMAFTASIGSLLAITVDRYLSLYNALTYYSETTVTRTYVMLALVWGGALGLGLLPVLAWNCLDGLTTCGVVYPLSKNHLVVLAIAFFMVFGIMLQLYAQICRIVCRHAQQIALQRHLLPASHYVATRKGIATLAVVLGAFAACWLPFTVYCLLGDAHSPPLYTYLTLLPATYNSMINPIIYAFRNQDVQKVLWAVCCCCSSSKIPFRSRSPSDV

Row | Structure (SMILES) | EC50 [1] | Activity [2]
1 | CC1(N)c2ccccc2-c2ccccc21 | > 100 µM | 
2 | C[n+]1cc2ccccc2c2ccccc21 | 382 µM | 
3 | CN(C)C1(C)c2ccccc2-c2ccccc21 | > 100 µM | 
4 | O=S1(=O)c2ccccc2-c2ccccc21 | 5.1 µM | 
5 | O=[N+]([O-])c1ccc2c(c1)[I+]c1ccccc1-2 | 1.34 µM | 
6 | Cc1nc2ccccc2c2ccccc12 | 86 µM | 
7 | CCCCCCCCCCCCC/C=C/[C@@H](O)[C@@H](N)COP(=O)(O)O |  | 20%
8 | O=CNC1c2ccccc2-c2ccccc21 | 158 µM | 
9 | NC1c2ccccc2-c2ccccc21 | > 100 µM | 
10 | O=c1[nH]c2ccccc2c2ccccc12 | 45 µM | 
11 | Fc1ccc2c(c1)oc1ccccc12 | 105 µM | 
12 | c1ccc2c(c1)sc1ccccc12 [DIBENZOTHIOPHENE] | 81 µM | 
13 | CC(C)(C)[S+]([O-])N=C1c2ccccc2-c2ccccc21 (stereo not given) | 66 µM | 
14 | c1ccc2c(c1)cnc1ccccc12 [PHENANTHRIDINE] | 67 µM | 
15 | CN(C)C1c2ccccc2-c2ccccc21 | 21 µM | 
16 | FC1(F)Oc2cc3c(cc2O1)-c1ccccc1[I+]3 | 19.3 µM | 
17 | Cn1c2ccccc2c2ccccc21 | 40 µM | 
18 | C[N+]1(C)c2ccccc2-c2ccccc21 | 114 µM | 
19 | c1ccc2c(c1)[nH]c1ccccc12 [CARBAZOLE] | 7.6 µM | 
20 | CC1c2ccccc2-c2ccccc2N1C (stereo not given) | 60 µM | 
